Data: patent US20230233566A1, “INHIBITION OF BMI1 ELIMINATES CANCER STEM CELLS AND ACTIVATES ANTITUMOR IMMUNITY” (The Regents of the University of California, priority 2020, published 2023)

Legend:
[1] = tested on: pH2A.X; assay: pH2A.X immunofluorescent staining in 4NQO-induced HNSCC; parameters: species or system mouse; conditions: 4NQO-induced HNSCC in vivo
[2] = tested on: SCC23 cells; assay: qRT-PCR of ATM, DNA-PKcs, MRE11, JUN, FOSL1, MMP3, MMP9 in SCC23 cells; assay type: cell-based, human
Protocol: For qRT-PCR, total RNA was prepared using TRIzol reagent (Thermo Fisher Scientific Cat #15596026), and 1 μg of RNA was reversely transcribed with random primer (Thermo Fisher Scientific Cat #48190011), dNTP mix (Thermo Fisher Scientific, Cat #18427013), and M-MuLV Reverse Transcriptase (New England Biolabs, Cat #M0253L). The levels of mRNA were […] measured using a SYBRGreen supermix (Bio-Rad, Cat #1708880). GAPDH was used as an internal control.

[3] = tested on: SOX2+ CSCs; assay type: in vivo, mouse; conditions: only strongly stained cells counted

With `COc1cc(Br)c(Nc2nc(-c3c(C)nc4ncccn34)cs2)c(Br)c1` [PTC209, N-(2,6-dibromo-4-methoxyphenyl)-4-(2-methylimidazo[1,2-a]pyrimidin-3-yl)thiazol-2-amine] the “pH2A.X in HNSCC” value [1] was “significantly increased”, the “ATM, DNA-PKcs, and MRE11 mRNA expression” value [2] was “does not affect the expression of ATM, DNA-PKcs, and MRE11” and the “JUN, FOSL1, MMP3, and MMP9 mRNA expression” value [2] was “does not change the expression of JUN, FOSL1, MMP3, and MMP9 significantly”. For the same compound, the “number of SOX2+ cells” value [3] was “significantly reduced”.
